Source: patent US12497365B2, “4-pyridinyl formamide compound or derivative thereof, preparation method therefor, herbicidal composition and use thereof” (Qingdao Kingagroot Chemical Compound Co., Ltd., priority 2019, dated 2025)

How the values were obtained:
Experiment in all cases: Weeding effect in post-emergence stage
Type in all cases: in vivo
Conditions in all cases: active ingredient 2000 g/ha, 3 weeks after application, fresh weight control rate
[1] = system: Descurainia sophia
Excerpt: (§1) The activity level criteria for plant damage (i.e., growth control rate) are as follows:
(§2) The above growth control rates are fresh weight control rates.
(§3) Experiment on weeding effect in post-emergence stage: monocotyledonous and dicotyledonous weed seeds and major crop seeds (wheat, corn, rice, soybean, cotton, oilseed rape, millet, sorghum) were placed in plastic pots filled with soil, then covered with 0.5-2 cm of soil, allowed to grow in a good greenhouse environment. After 2 weeks of sowing, the test plants were treated in the 2-3 leaf stage. The tested compounds of the present invention were respectively dissolved in acetone at the dosage of 2000, 1000, 500, 250, 125 g/ha, then added with Tween 80 and 1.5 liter/ha of emulsifiable concentrate of methyl oleate as synergist, diluted with a certain amount of water to obtain a solution with a certain concentration, and sprayed with a spray tower onto the plants. After the application, the plants were cultured for 3 weeks in the greenhouse, and then the experimental results were listed in Table 1.

[2] = system: Chenopodium album
Excerpt: as §1, §2, §3

[3] = system: Amaranthus retroflexus L.
Excerpt: as §1, §2, §3

[4] = system: Abutilon theophrasti
Excerpt: as §1, §2, §3

| Compound | Weeding effect, activity level (growth control rate), Descurainia sophia [1] | Weeding effect, activity level (growth control rate), Chenopodium album [2] | Weeding effect, activity level (growth control rate), Amaranthus retroflexus L. [3] | Weeding effect, activity level (growth control rate), Abutilon theophrasti [4] |
| --- | --- | --- | --- | --- |
| CC(=O)Nc1ccc(-c2nccc(C(=O)Nc3nnnn3C)c2Cl)cc1 [Compound 1-47] | 5 (Level 5: growth control rate is above 85%) | 5 (Level 5: growth control rate is above 85%) | 5 (Level 5: growth control rate is above 85%) | 5 (Level 5: growth control rate is above 85%) |
| CCSc1c(C(=O)Nc2nnnn2C)ccnc1-c1ccc(F)cc1 [Compound 1-204] | 5 (Level 5: growth control rate is above 85%) | 5 (Level 5: growth control rate is above 85%) | 5 (Level 5: growth control rate is above 85%) | 5 (Level 5: growth control rate is above 85%) |
| Cn1nnnc1NC(=O)c1ccnc(-c2ccn[nH]2)c1Cl [Compound 1-177] | 5 (Level 5: growth control rate is above 85%) | 5 (Level 5: growth control rate is above 85%) | 5 (Level 5: growth control rate is above 85%) | 5 (Level 5: growth control rate is above 85%) |
| Cn1nnnc1NC(=O)c1ccnc(-c2cccc3cnccc23)c1Cl [Compound 1-114] | 5 (Level 5: growth control rate is above 85%) | 5 (Level 5: growth control rate is above 85%) | 5 (Level 5: growth control rate is above 85%) | 5 (Level 5: growth control rate is above 85%) |
| Cc1nccc(C(=O)Nc2nnnn2C)c1Cl [Compound 1-1] | 5 (Level 5: growth control rate is above 85%) | 5 (Level 5: growth control rate is above 85%) | 5 (Level 5: growth control rate is above 85%) | 5 (Level 5: growth control rate is above 85%) |
| Cn1nnnc1NC(=O)c1ccnc(-c2ccccc2Cl)c1Cl [Compound 1-18] | 5 (Level 5: growth control rate is above 85%) | 5 (Level 5: growth control rate is above 85%) | 5 (Level 5: growth control rate is above 85%) | 5 (Level 5: growth control rate is above 85%) |
| Cn1nnnc1NC(=O)c1ccnc(-c2ccc(F)c(F)c2)c1Cl [Compound 1-66] | 5 (Level 5: growth control rate is above 85%) | 5 (Level 5: growth control rate is above 85%) | 5 (Level 5: growth control rate is above 85%) | 5 (Level 5: growth control rate is above 85%) |
| Cn1nnnc1NC(=O)c1ccnc(-c2ccc(C#N)cc2)c1Cl [Compound 1-50] | 5 (Level 5: growth control rate is above 85%) | 5 (Level 5: growth control rate is above 85%) | 5 (Level 5: growth control rate is above 85%) | 5 (Level 5: growth control rate is above 85%) |
| COc1ccc(CSc2nccc(C(=O)Nc3nnnn3C)c2Cl)cc1 [Compound 1-2069] | 5 (Level 5: growth control rate is above 85%) | 5 (Level 5: growth control rate is above 85%) | 5 (Level 5: growth control rate is above 85%) | 5 (Level 5: growth control rate is above 85%) |
| O=C(Nc1nnc(C2CC2)o1)c1ccnc(-c2ccc(F)cc2)c1Cl [Compound 1-1257] | 5 (Level 5: growth control rate is above 85%) | 5 (Level 5: growth control rate is above 85%) | 5 (Level 5: growth control rate is above 85%) | 5 (Level 5: growth control rate is above 85%) |
| Cn1nnnc1NC(=O)c1ccnc(-c2ccc(OC3CCCCO3)cc2)c1Cl (stereo not drawn) [Compound 1-51] | 5 (Level 5: growth control rate is above 85%) | 5 (Level 5: growth control rate is above 85%) | 5 (Level 5: growth control rate is above 85%) | 5 (Level 5: growth control rate is above 85%) |
| CCOc1c(C(=O)Nc2nnnn2C)ccnc1-c1ccc(F)cc1 [Compound 1-201] | 5 (Level 5: growth control rate is above 85%) | 5 (Level 5: growth control rate is above 85%) | 5 (Level 5: growth control rate is above 85%) | 5 (Level 5: growth control rate is above 85%) |
| Cn1nnnc1NC(=O)c1ccnc(-c2ccc3ccccc3c2)c1Cl [Compound 1-112] | 5 (Level 5: growth control rate is above 85%) | 5 (Level 5: growth control rate is above 85%) | 5 (Level 5: growth control rate is above 85%) | 5 (Level 5: growth control rate is above 85%) |
| Cc1cccc(C)c1-c1nccc(C(=O)Nc2nnnn2C)c1Cl [Compound 1-58] | 5 (Level 5: growth control rate is above 85%) | 5 (Level 5: growth control rate is above 85%) | 5 (Level 5: growth control rate is above 85%) | 5 (Level 5: growth control rate is above 85%) |
| Cn1nnnc1NC(=O)c1ccnc(-c2ccc(F)cc2)c1S(C)(=O)=O [Compound 1-207] | 5 (Level 5: growth control rate is above 85%) | 5 (Level 5: growth control rate is above 85%) | 5 (Level 5: growth control rate is above 85%) | 5 (Level 5: growth control rate is above 85%) |
| Cc1ccc(-c2nccc(C(=O)Nc3nnnn3C)c2Cl)c(C)c1 [Compound 1-59] | 5 (Level 5: growth control rate is above 85%) | 5 (Level 5: growth control rate is above 85%) | 5 (Level 5: growth control rate is above 85%) | 5 (Level 5: growth control rate is above 85%) |
| Cn1nnnc1NC(=O)c1ccnc(-c2ccc(F)cc2)c1F [Compound 1-195] | 5 (Level 5: growth control rate is above 85%) | 5 (Level 5: growth control rate is above 85%) | 5 (Level 5: growth control rate is above 85%) | 5 (Level 5: growth control rate is above 85%) |
| Cc1c(-c2nccc(C(=O)Nc3nnnn3C)c2Cl)cnn1C [Compound 1-170] | 5 (Level 5: growth control rate is above 85%) | 5 (Level 5: growth control rate is above 85%) | 5 (Level 5: growth control rate is above 85%) | 5 (Level 5: growth control rate is above 85%) |
